# Reference: publication PMC9399588, “Effect of fluconazole on the pharmacokinetics of a single dose of fedratinib in healthy adults” (Cancer Chemotherapy and Pharmacology, 2022)
# Where “and” joins values, the source holds several entries; their conditions need not be identical. Identical values can stand only once. Like-named read-outs stand apart in the source and are kept apart here.
# Assays:
# [1] = in vivo; cited from earlier work
# [2] = Safety and tolerability assessment (adverse event monitoring) in the Phase 1 study; type: in vivo, human
# Protocol: Safety assessments included adverse event (AE) monitoring, review of concomitant medications and procedures, physical examinations, vital signs measurements, 12-lead ECGs, and clinical laboratory safety tests. All AEs were recorded from the time of informed consent until study completion, and up to 30 days after the last dose of fluconazole if reported to the investigator.
# [3] = parameters: method as in PMID 34019108; conditions: healthy adults; cited from earlier work
# myelofibrosis = tested on: myelofibrosis; parameters: method as in PMID 34331348; conditions: double-blind Phase 3, NCT01437787; cited from earlier work
# CYP3A4 = tested on: CYP3A4; parameters: method as in PMID 32886148; conditions: 0.1 μM fedratinib, different hepatocyte preparations; cited from earlier work
# [4] = parameters: method as in PMID 32748109; conditions: healthy adult men, oral dose of [14C]-fedratinib 200 mg; cited from earlier work
# [5] = Phase 1 fixed-sequence drug-drug interaction study: plasma pharmacokinetics of single-dose fedratinib with and without fluconazole; type: in vivo, human; conditions: for Vd/F: read-out: Vz/F, geometric mean (geometric CV%); for half-life: read-out: t1/2 (terminal elimination), geometric mean (geometric CV%) (converted)
# Source text: This was an open-label Phase 1 study to evaluate the effect of multiple doses of fluconazole on the PK, safety, and tolerability of a single dose of fedratinib in healthy adult participants (NCT04702464). Healthy men and women aged 18–65 years with body mass index (BMI) ≥ 18 and ≤ 33 kg/m^2 at screening were enrolled at one site in the USA. Participants were confirmed to be healthy based on medical history, physical examination, clinical laboratory test results, vital signs, and 12-lead electrocardiogram (ECG) at screening and check-in (day − 1). Aspartate aminotransferase, alanine aminotransferase, and total bilirubin must have been at or below the upper limit of the reference range on or before check-in (day − 1). Other clinical parameters and laboratory results were either within normal range or deemed not clinically significant by the investigator. Women of childbearing potential were required to have a negative pregnancy test result and to use birth control.
# This was a non-randomized, fixed-sequence, open-label study consisting of a screening phase, treatment phase (including baseline), and follow-up telephone call (Fig. 1). The fixed-sequence crossover design of this study was selected to remove intersubject variability from comparison between treatments. Healthy participants were chosen to mitigate the potential confounding effects of disease state or other concomitant medications likely to be present in a population of patients with myelofibrosis.
# Participants resided at the clinical site from day − 1 to day 27. A single oral dose of fedratinib 100 mg was administered under fasted conditions on day 1. Participants received fluconazole 400 mg on day 10 and fluconazole 200 mg once daily on days 11–23. On day 18, participants received a single oral dose of fedratinib 100 mg, under fasted conditions, with fluconazole 200 mg. No food or beverages (except water) were allowed for at least 4 h after dosing; water was allowed as desired except for 1 h before and 1 h after each dose. Participants received ondansetron 8 mg by mouth approximately 1 h before each fedratinib administration to reduce the potential for fedratinib-related nausea and vomiting, with the option of a subsequent oral dose(s) of ondansetron as necessary. Fluconazole is not expected to have a clinically meaningful impact on the PK of ondansetron as ondansetron is metabolized by multiple enzymes including CYP1A1/2, CYP3A4, and CYP2D6 [28]. […] Participants were discharged from the clinical site on day 27 and received a follow-up telephone call 4 days (± 2 days) after discharge. In the event that participants discontinued the study for any reason, an early termination (ET) visit was performed. Only safety assessments scheduled for the day of discharge were performed at the ET visit. Participants who discontinued the study also received a follow-up telephone call 4 days (± 2 days) after discharge. Participants who discontinued the study due to inclement weather returned to the clinic to complete the ET visit at a later date.
# On days 1 and 18, blood samples for determination of fedratinib plasma concentrations were collected before each dose and 0.5, 1, 1.5, 2, 3, 4, 6, 8, 12, 24, 48, 72, 120, 168, and 216 h post-dose. Plasma fedratinib concentrations were measured using a validated liquid chromatography–tandem mass spectrometry assay with a lower limit of quantification (LLOQ) of 1.00 ng/mL [19].
# Plasma PK parameters were calculated using noncompartmental methods. The PK parameters determined for fedratinib were maximum observed plasma concentration (Cmax), time to Cmax (Tmax), AUC from time 0 to the time of the last quantifiable concentration (AUC0–t), AUC from time 0 to infinity (AUC0–∞), terminal elimination t1/2, apparent total plasma clearance (CL/F), and apparent total volume of distribution during the terminal phase (Vz/F). […]
# [6] = parameters: method as in PMID 32886148; conditions: PBPK simulations; cited from earlier work
# CYP3A4 (liver) = tested on: CYP3A4 (liver); parameters: method as in PMID 32886148; conditions: after first dose of 400 mg once-daily fedratinib, healthy participants; cited from earlier work
# CYP2C19 (liver) = tested on: CYP2C19 (liver); parameters: method as in PMID 32886148; conditions: after first dose of 400 mg once-daily fedratinib, healthy participants; cited from earlier work
# [7] = cited from earlier work
# [8] = parameters: method as in PMID 32248324; conditions: cited from earlier work
# [9] = parameters: method as in PMID 12867217; conditions: cited from earlier work
# [10] = parameters: method as in PMID 31324935; conditions: cited from earlier work
# [11] = compared with fedratinib alone, single oral dose 100 mg
# [12] = fedratinib 100 mg + fluconazole 200 mg once daily (test) vs fedratinib 100 mg (reference)
# [13] = healthy men, single dose fedratinib 300 mg with ketoconazole vs alone
smiles,measurement,setting,value
Cc1cnc(Nc2ccc(OCCN3CCCC3)cc2)nc1Nc1cccc(S(=O)(=O)NC(C)(C)C)c1 [fedratinib],Tolerability of single doses,[1],generally well tolerated
same,Participants with treatment-emergent adverse events (TEAEs),"[2]; during treatment with fedratinib 100 mg alone, 3 participants",10.3%
same,Participants with treatment-emergent adverse events (TEAEs),"[2]; during treatment with fedratinib 100 mg plus fluconazole 200 mg, 1 participant",6.3%
same,Tolerability of single oral doses,"[2]; fedratinib 100 mg with or without fluconazole, healthy adults",well tolerated
same,Effect of CYP3A4 inducers rifampin and efavirenz on fedratinib exposure,[3],decrease fedratinib exposure
same,Proportion of patients reaching primary (≥ 35% reduction in spleen volume) and secondary (≥ 50% reduction in symptom score) endpoints vs placebo,myelofibrosis,greater proportion
same,CYP3A4 share of the total CYP contribution to metabolism,CYP3A4,0–67%
same,Share of total circulating drug in plasma accounted for by fedratinib,[4],approximately 80%
same,Tmax median difference between fedratinib with fluconazole and fedratinib alone,"[5]; Hodges–Lehmann estimate, 90% CI 0.00–1.00, p = 0.156",0.5 h
same,AUC(0-inf),"[5]; both sexes, human, plasma, oral, 100 mg fedratinib + 200 mg fluconazole once daily (test), n = 5, read-out: AUC0–∞, geometric mean from ANOVA model",4100 ng·h/mL
same,AUC(0-inf),"[5]; both sexes, human, plasma, oral, 100 mg, 100 mg fedratinib (reference), n = 7, read-out: AUC0–∞, geometric mean from ANOVA model",2410 ng·h/mL
same,AUC(0-t),"[5]; both sexes, human, plasma, oral, 100 mg fedratinib (reference), n = 16, read-out: AUC0–t, geometric mean from ANOVA model",1900 ng·h/mL
same,Cmax,"[5]; both sexes, human, plasma, oral, 100 mg fedratinib (reference), n = 16, read-out: Cmax, geometric mean from ANOVA model",121 ng/mL
same,Cmax,"[5]; both sexes, human, plasma, oral, 100 mg fedratinib + 200 mg fluconazole once daily (test), n = 16, read-out: Cmax, geometric mean from ANOVA model",146 ng/mL
same,AUC(0-inf),"[5]; both sexes, human, plasma, oral, fedratinib 100 mg + fluconazole 200 mg once daily, n = 5, read-out: AUC0–∞, geometric mean (geometric CV%)",4200 ng·h/mL
same,Vd/F,"[5]; both sexes, human, plasma, oral, fedratinib 100 mg + fluconazole 200 mg once daily, n = 5",3560 L
same,AUC(0-t),"[5]; both sexes, human, plasma, oral, fedratinib 100 mg + fluconazole 200 mg once daily, n = 16, read-out: AUC0–t, geometric mean (geometric CV%)",2970 ng·h/mL
same,half-life,"[5]; both sexes, human, plasma, oral, fedratinib 100 mg + fluconazole 200 mg once daily, n = 16",138 h
same,AUC(0-inf),"[5]; both sexes, human, plasma, po, 100 mg, fedratinib 100 mg single oral dose alone, n = 7, read-out: AUC0–∞, geometric mean (geometric CV%)",2360 ng·h/mL
same,Cmax,"[5]; both sexes, human, plasma, fedratinib 100 mg single oral dose + fluconazole 200 mg once daily, healthy adults, n = 16, read-out: Cmax, geometric mean (geometric CV%)",146 ng/mL
same,Cmax,"[5]; both sexes, human, plasma, fedratinib 100 mg single oral dose alone, fasted, healthy adults, n = 16, read-out: Cmax, geometric mean (geometric CV%)",121 ng/mL
same,Vd/F,"[5]; both sexes, human, plasma, fedratinib 100 mg single oral dose alone, n = 7",6500 L
same,AUC(0-t),"[5]; both sexes, human, plasma, fedratinib 100 mg single oral dose alone, n = 16, read-out: AUC0–t, geometric mean (geometric CV%)",1900 ng·h/mL
same,Tmax,"[5]; both sexes, human, plasma, fedratinib 100 mg single oral dose alone, n = 16, read-out: Tmax, median (min, max)",2 h
same,half-life,"[5]; both sexes, human, plasma, fedratinib 100 mg single oral dose alone, n = 16",125 h
same,Increase in fedratinib AUC0–t on coadministration with fluconazole,[5]; [11],56%
same,Increase in fedratinib Cmax on coadministration with fluconazole,[5]; [11],21%
same,"AUC0–t: ratio (%) of geometric LS means, test/reference (90% CI)",[5]; [12],"156% and 156 (145, 168) %"
same,"Cmax: ratio (%) of geometric LS means, test/reference (90% CI)",[5]; [12],"121% and 121 (108, 135) %"
same,"AUC0–∞: ratio (%) of geometric LS means, test/reference (90% CI)","[5]; fedratinib 100 mg + fluconazole 200 mg once daily (test, n = 5) vs fedratinib 100 mg (reference, n = 7)","170 (143, 202) %"
same,"CL/F, geometric mean (geometric CV%)","[5]; fedratinib 100 mg + fluconazole 200 mg once daily, n = 5",23.8 (40.2) L/h
same,"Tmax, median (min, max)","[5]; fedratinib 100 mg + fluconazole 200 mg once daily, n = 16","2.00 (1.02, 6.00) h"
same,"CL/F, geometric mean (geometric CV%)","[5]; fedratinib 100 mg single oral dose alone, n = 7",42.3 (21.9) L/h
same,Difference in terminal t1/2 of fedratinib alone vs in combination with fluconazole,[5]; in vivo,no significant difference
same,Increase in fedratinib exposure by fluconazole (in words),[5]; observed in this study,less than twofold increase
same,Increase in systemic exposure to fedratinib on coadministration with fluconazole,"[5]; single oral dose, compared with fedratinib alone",up to 56%
same,Predicted increase in fedratinib exposure on coadministration of fluconazole (dual CYP2C19 and CYP3A4 inhibitor) vs fedratinib alone,[6],up to a fourfold increase
same,Mean fraction of metabolism or excretion in relation to systemic clearance,CYP3A4 (liver),64%
same,Mean fraction of metabolism or excretion in relation to systemic clearance,CYP2C19 (liver),16%
same,Effective t1/2,[7],around 40 h
same,Terminal elimination half-life (t1/2),[7],around 114 h
same,Effective t1/2,[7]; healthy participants and patients with myelofibrosis,~ 40 h
same,Effect of ketoconazole coadministration on fedratinib Tmax,[8],no effect on Tmax
same,Increase in fedratinib AUC0–t by ketoconazole,[8]; [13],3.20 fold
same,Increase in fedratinib Cmax by ketoconazole,[8]; [13],1.93 fold
OC(Cn1cncn1)(Cn1cncn1)c1ccc(F)cc1F [fluconazole],Participants with treatment-emergent adverse events (TEAEs),"[2]; during treatment with fluconazole 200 mg alone, 2 participants",7.4%
Cc1nccn1CC1CCc2c(c3ccccc3n2C)C1=O (stereo not drawn) [ondansetron],Change in AUC on coadministration with the moderate CYP3A inhibitor aprepitant,[9],no clinically significant change
N#CC[C@H](C1CCCC1)n1cc(-c2ncnc3[nH]ccc23)cn1 [ruxolitinib],Increase in exposure on coadministration with fluconazole,[10],234%
